In publication PMC5854708, “Grass Carp Prolactin Gene: Structural Characterization and Signal Transduction for PACAP-induced Prolactin Promoter Activity” (Scientific Reports, 2018):
Where two headings read alike, the source gives them in different places.

Tests used:
[1] = test system: grass carp PRL promoter (pPRL(−1156).Luc) in αT3-1 cells; type: cell-based, grass carp (promoter); rat (αT3-1 cells, as printed); settings: for effect on Forskolin-induced luciferase activity: Forskolin 100 nM
Method: The cells were then cultured for 18 hr recovery before drug treatment. (A) Time course analysis on the effect of oPACAP38 (6–48 hrs) on grass carp PRL promoter activity in αT3-1 cells. (B) αT3-1 cells over-expressed pPRL(−1156).LUC were treated for 24 hrs with increasing doses of oPACAP38. Effects of PACAP and VIP antagonists on PACAP-induced PRL mRNA expression were also investigated. In these experiments, αT3-1 cells over-expressed pPRL(−1156).LUC were challenged with oPACAP38 (10 nM, 24 hr) in the presence or absence of (C) the PACAP antagonist PACAP6-38 (10 nM) or (D) VIP antagonist (4-Cl-D-Phe6, Leu17)VIP (“VIP-R antagonist”, 100 nM).
After 18 h recovery, the cells were incubated with respective drugs. (A) αT3-1 cells over-expressed pPRL(−1156).LUC were treated for 24 hrs with increasing doses of cpt-cAMP (1–100 μM). (B) αT3-1 cells over-expressed pPRL(−1156).LUC were treated for 24 hrs with increasing doses of Forskolin (10–1000 nM). Effects of cAMP/PKA inhibitors on PACAP-induced PRL mRNA expression were then investigated. αT3-1 cells over-expressed pPRL(−1156).LUC were challenged with oPACAP38 (10 nM, 24 hr) in the presence or absence of (C) AC inhibitor MDL12330A (10 μM) or (D) PKA blocker H89 (10 μM).
After 18 h recovery, the cells were incubated with respective drugs. The cells were treated for 24 hr with increasing doses of (A) Ca^2+ ionophore A23187 or (B) L-type VSCC activator Bay K8644. Inhibiting extracellular Ca^2+ entry on PRL mRNA expression in carp pituitary cells was examined. In this study, αT3-1 cells over-expressed pPRL(−1156).LUC were treated with (C) oPACAP38 (10 nM, 24 hrs) or (D) Forskolin (100 nM, 24 hrs) in the Ca^2+-free medium (with different doses of EGTA).
After 18 h recovery, the cells were incubated with respective drugs.

PAC1 receptors = settings: cited from earlier work
Description: (§1) PACAP and vasoactive intestinal peptide (VIP) are members of the glucagon/secretin peptide family and have been reported to play roles in PRL regulation. […] In contrast to VIP, the biological actions of PACAP on ...

[2] = test system: PRL gene expression in GH4C1 cells; settings: cited from earlier work
Description: as §1

[3] = test system: PRL secretion / PRL gene expression; settings: mammals, cited from earlier work
Description: as §1

PRL promoter = test system: PRL promoter; parameters: method as in 2 sources, one per row (each row's own in cited_ref): ref 2 = [2]; PMID 15731170; doi:10.1210/me.2004-0111; 2. Liu, J. C., Baker, R. E., Chow, W., Sun, C. K. & Elsholtz, H. P. Epigenetic mechanisms in the dopamine D2 receptor-dependent inhibition of the prolactin gene. Mol Endocrinol 19 , 1904–1917, doi:10. ||| ref 3 = [3]; PMID 1922085; doi:10.1210/mend-5-4-535; 3. Yan GZ Pan WT Bancroft C Thyrotropin-releasing hormone action on the prolactin promoter is mediated by the POU protein pit-1 Mol Endocrinol 1991 5 535 541 10.1210/mend-5-4-535 1922085; settings: mammals, cited from earlier work
Description: (§2) Prolactin (PRL) is a pituitary hormone with diverse function. […] In mammals, transcription of PRL gene is regulated by multiple factors. […] Furthermore, sex steroid ...

[4] = test system: PRL promoter / PRL transcript; parameters: method as in PMID 17904137; settings: goldfish; cited from earlier work
Description: as §2

PRL gene transcription = test system: PRL gene transcription; parameters: method as in PMID 18006630, PMID 18022314; settings: human; cited from earlier work
Description: as §2

[5] = calmidazolium 1 μM or KN62 5 μM, oPACAP38 10 nM, 24 hrs, n = 4
[6] = calmidazolium 1 μM, W7 30 μM, W13 100 μM or KN62 5 μM, n = 4
[7] = W7 30 μM or W13 100 μM, pre-treated 15 mins, PACAP 100 nM (Supplementary Fig. 4), 24 hours, n = 4
[8] = LY294002 10 μM or Wortmannin 10 nM, n = 4
[9] = U0126, PD169316 or SP600125, each 10 μM, n = 4
[10] = U0126, PD169316 or SP600125, each 10 μM, oPACAP38 10 nM, 24 hrs, n = 4
[11] = 24-hr, A23187 1–100 nM or Bay K8644 1–100 nM, n = 4
[12] = 24 hr, MDL12330A 10 μM or H89 10 μM, n = 4
[13] = oPACAP38 10 nM, 24 hr, MDL12330A 10 μM or H89 10 μM, n = 4

Compound: CCCCCCCCCCCCCCCCCCOCC(COP(=O)([O-])OCC[N+](C)(C)C)OC (centres unmarked) [Edelfosine]
- effect on PACAP-stimulated luciferase activity ([1]; Edelfosine 20 μM or 2-APB 100 μM, oPACAP38 10 nM, 24 hrs, n = 4): effectively abolished

Compound: CN([C@@H](Cc1ccc(OS(=O)(=O)c2cccc3cnccc23)cc1)C(=O)N1CCN(c2ccccc2)CC1)S(=O)(=O)c1cccc2cnccc12 [KN62]
- effect on PACAP-stimulated luciferase activity [1, 5]: suppressed/totally inhibited
- effect on basal luciferase activity [1, 6]: suppressed/totally inhibited

Compound: PACAP6–38
- effect on oPACAP38-induced PRL promoter activity ([1]; oPACAP38 10 nM, 24 hr, antagonist PACAP6–38 100 nM (text; legend: 10 nM), n = 4): blocked

Compound: vasoactive intestinal peptide [VIP]
- affinity/specificity at PAC1 receptors (PAC1 receptors): little/very low affinity
- effect on PRL gene expression [2]: stimulatory effects
- effect on PRL secretion ([3]; ref 8): stimulatory effects
- effect on PRL gene expression ([3]; ref 9): stimulatory effects

Compound: NCCCCNS(=O)(=O)c1ccc2c(Cl)cccc2c1 [W13]
- effect on PACAP-stimulated luciferase activity [1, 7]: suppressed/totally inhibited
- effect on basal luciferase activity [1, 6]: suppressed/totally inhibited

Compound: O=C(O)CN(CCOCCOCCN(CC(=O)O)CC(=O)O)CC(=O)O [EGTA]
- effect on Forskolin-induced luciferase activity ([1]; EGTA 1–4 mM, Ca^2+-free medium, 24 hrs, n = 4): suppressed dose-dependently
- effect on PACAP-induced luciferase activity ([1]; EGTA 1–4 mM, Ca^2+-free medium, oPACAP38 10 nM, 24 hrs, n = 4): suppressed dose-dependently

Compound: COc1ccc2c(c1)CC[C@@H]1[C@@H]2CC[C@]2(C)[C@@H](NCCCCCCN3C(=O)C=CC3=O)CC[C@@H]12 [U73122]
- effect on PACAP-stimulated luciferase activity ([1]; U73122 10 μM, pre-treated 15 mins, PACAP 100 nM (Supplementary Fig. 4), 24 hours, n = 4): effectively abolished

Compound: NCCc1ccc(O)c(O)c1 [Dopamine]
- effect on PRL promoter activity (PRL promoter; via dopamine D2 receptor activation): inhibitory effect on PRL promoter activity
- effect on PRL promoter activity [4]: inhibition of PRL promoter activity

Compound: NCCOB(c1ccccc1)c1ccccc1 [2-APB, 2-aminoethoxydiphenyl borate]
- effect on PACAP-stimulated luciferase activity [1]: effectively abolished

Compound: COC[C@H]1OC(=O)c2coc3c2[C@@]1(C)C1=C(C3=O)[C@@H]2CCC(=O)[C@@]2(C)C[C@H]1OC(C)=O [Wortmanin]
- effect on basal luciferase activity [1, 8]: effective in reducing
- effect on PACAP-induced luciferase activity ([1]; Wortmannin 10 nM, oPACAP38 10 nM, 24 hrs, n = 4): effective in reducing

Compound: N#CC(=C(/N)Sc1ccccc1N)/C(C#N)=C(/N)Sc1ccccc1N [U0126]
- effect on basal luciferase activity [1, 9]: not affected
- effect on PACAP-induced luciferase activity [1, 10]: not affected

Compound: O=c1cc(N2CCOCC2)oc2c(-c3ccccc3)cccc12 [LY294002]
- effect on basal luciferase activity [1, 8]: effective in reducing
- effect on PACAP-induced luciferase activity ([1]; LY294002 10 μM, pre-treated 15 mins, PACAP 100 nM (Supplementary Fig. 4), 24 hours, n = 4): effective in reducing

Compound: Clc1ccc(C(c2ccc(Cl)cc2)n2cc[n+](CC(OCc3ccc(Cl)cc3Cl)c3ccc(Cl)cc3Cl)c2)cc1 (centres unmarked) [calmidazolium]
- effect on PACAP-stimulated luciferase activity [1, 5]: suppressed/totally inhibited
- effect on basal luciferase activity [1, 6]: suppressed/totally inhibited

Compound: CNc1ccc2oc(C[C@H]3O[C@@]4(CC[C@H]3C)O[C@H]([C@H](C)C(=O)c3ccc[nH]3)[C@H](C)C[C@H]4C)nc2c1C(=O)O [A23187]
- effect on luciferase activity expression [1, 11]: effective in stimulating luciferase activity expression

Compound: thyrotropin-releasing hormone [TRH]
- effect on PRL promoter (PRL promoter; via pit-1 transactivation): stimulate PRL promoter
- effect on PRL promoter activity [4]: suppressed
- effect on PRL transcript expression [4]: suppressed

Compound: Nc1ncnc2c1nc(Sc1ccc(Cl)cc1)n2C1OC2COP(=O)(O)OC2C1O (centres unmarked) [cpt-cAMP, 8-(4-chlorophenylthio)-cAMP]
- effect on luciferase activity expression ([1]; 24 hrs, cpt-cAMP 1–100 μM, n = 4): dose-dependently increased

Compound: COC(=O)C1=C(C)NC(C)=C([N+](=O)[O-])C1c1ccccc1C(F)(F)F (centres unmarked) [Bay K8644]
- effect on luciferase activity expression [1, 11]: effective in stimulating luciferase activity expression

Compound: estrogen
- effect on PRL gene transcription (PRL gene transcription): potent stimulator for PRL gene transcription

Compound: Oc1c2ccccc2c2c3c(cccc13)N=N2 [SP600125]
- effect on basal luciferase activity [1, 9]: not affected
- effect on PACAP-induced luciferase activity [1, 10]: not affected

Compound: COC(=O)C1=C(C)NC(C)=C(C(=O)OC)C1c1ccccc1[N+](=O)[O-] [nifedipine]
- effect on Forskolin-induced luciferase activity ([1]; nifedipine 10 μM, 24 hrs, n = 4): effective in attenuating
- effect on PACAP-induced luciferase activity ([1]; nifedipine 10 μM, oPACAP38 10 nM, 24 hrs, n = 4): effective in attenuating

Compound: NCCCCCCNS(=O)(=O)c1cccc2c(Cl)cccc12 [W7]
- effect on PACAP-stimulated luciferase activity [1, 7]: suppressed/totally inhibited
- effect on basal luciferase activity [1, 6]: suppressed/totally inhibited

Compound: O=S(=O)(NCCNC/C=C/c1ccc(Br)cc1)c1cccc2cnccc12 [H89]
- effect on basal luciferase activity [1, 12]: markedly suppressed
- effect on oPACAP38-induced luciferase activity [1, 13]: totally abolished

Compound: CO[C@H]1C[C@@H]2CC[C@@H](C)[C@@](O)(O2)C(=O)C(=O)N2CCCC[C@H]2C(=O)O[C@H]([C@H](C)C[C@@H]2CC[C@@H](O)[C@H](OC)C2)CC(=O)[C@H](C)/C=C(\C)[C@@H](O)[C@@H](OC)C(=O)[C@H](C)C[C@H](C)/C=C/C=C/C=C/1C [rapamycin]
- effect on PACAP-induced luciferase activity ([1]; rapamycin 20 nM, oPACAP38 10 nM, 24 hrs, n = 4): attenuated

Compound: CN(C)CCCn1cc(C2=C(c3c[nH]c4ccccc34)C(=O)NC2=O)c2ccccc21 [GF109203]
- effect on PACAP-induced luciferase activity ([1]; GF109203 1 μM, oPACAP38 10 nM, 24 hrs, n = 4): not effective in altering PACAP induction

Compound: Cl.c1ccc(C2CCCC2NC2=NCCCCCCCCCCC2)cc1 (centres unmarked) [MDL12330A]
- effect on basal luciferase activity [1, 12]: markedly suppressed
- effect on oPACAP38-induced luciferase activity [1, 13]: totally abolished

Compound: C=C[C@@]1(C)CC(=O)[C@]2(O)[C@@]3(C)[C@@H](O)CCC(C)(C)[C@@H]3[C@H](O)[C@H](OC(C)=O)[C@@]2(C)O1 [Forskolin]
- effect on luciferase activity expression ([1]; 24 hrs, Forskolin 10–1000 nM, n = 4): dose-dependently increased
